Holding throughout (assay type): cell-based, human
Assay [1] concerns Daoy cells. Briefly: Fibronectin-mediated cell migration assay (Boyden chamber, Chemicon QCM-FN). The method, then: Fibronectin-mediated cell adhesion and migration were assessedusing the Chemicon QCM-FN Quantitative Cell Migration Assay (Chemicon International). Briefly, Daoy cells were grown in EMEM withh 10% FBS to 80% confluency and starved in serum-free EMEM for 24 h. Cells were washed twice with PBS, harvested them with trypsin/EDTA, and resuspended them in serum-free EMEM (1×10^6 cells/ml) with 5% BSA for 1 h. We subsequently incubated cells at 37 ° C. for 30 min with either no antibody, 0.6 ug/ml of neutralizing monoclonal anti-human PDGFRA antibody (R&D Systems), 0.6 ug/mi isotype-matched control antibody (R&D Systems), and or first pretreated them with 10 μM of MAP2K1/MAP2K2 inhibitor U0126 (Cell Signaling Technology) for 1 h. We based the concentration of antibody used on the ND50 for this lot of antibody for blocking 10 ng/ml of PDGFRA biologic activity on human WS1 cells (per R&D Systems product insert). We based the concentration of MAP2K1/MAP2K2 inhibitor U0126 used on the manufacturer?s recommendation. Following incubations, we resuspended the cells, and placed aliquots of 2×10^5 cells in 200 ul of serum-free EMEM into the upper fibronectin-(FN-) coated or BSA-coated (control) Boyden chambers (migration assay), or FN-coated wells (adhesion assay). The lower well contained 0, 1, 2, 4, 6, 8, or 10 ng/ml PDGFA (Chemicon) in 300 ll serum-free EMEM. We incubated the cells for 3 h at 37° C., stained them with cell stain solution (Chemicon), and subsequently washed them. We removed the medium, as well as non-adherent or non-migrating cells, from the upper side of the Boyden chamber membranes. We first visualized the cells by microscopy, and then subsequently eluted migrating or adherent cells with extraction solution (Chemicon) according to the manufacturer? s instructions. We aliquoted eluant (50 μl)×2 for each test sample into microtiter plates, and read the optical density (OD540-570) on a ThermoMax microplate reader (Molecular Devices). Using standardized migration rates of 130 cells per mm^2 equivalent to an OD550 of 0.270 (per Chemicon product insert), we obtained the final cell counts by averaging the two OD measurements (540 nm and 570 nm) after subtraction of the BSA control measurements (background), and determined significance (P value) using a t-test.
We tested the significance of PDGFRA in the metastatic potential of Daoy cells by fibronectin-dependent adhesion and migration assays.
To further test whether medulloblastoma migration is directly linked in part to downstream MAP2K1, MAP2K2 and MAPK1/3 activation, Daoy migration was tested in an identical fashion to that described above, except that cells were pretreated with U0126, a highly specific chemical inhibitor of MAP2K1 and MAP2K2 (FIG. 5b).

In another assay the test system is MAPK1/3. Briefly: Western blot, phospho-MAPK1/3 to total ratio in Daoy cell lysates. On the procedure:
(§1) Daoy cells were treated in a manner identical to that described above for migration. After described incubation with PDGFA, PDGFRA antibody, or MAP2K1/MAP2K2 inhibitor U0126, we prepared cell lysates by adding 500 ul lysis buffer (Cell Signaling Technology) to cell pellets on ice for 20 min, sonicating, and centrifuging at 10,000 RPM for 10 min. We collected the supernatants and mixed equal amounts of lysate protein (5.2 ug) in a 1:1 mixture with Tris-Glycine SDS sample buffer Covex). Samples were run on a 12% SDS-PAGE gel (BioRad) along with broad range protein markers (BioRad) at 125 V for 1 h. We transferred proteins to PVDF membrane (NEN Life Sciences) using a semi-dry transfer cell (BioRad). We first soaked the membrane in anhydrous methanol for 2 min, deionized water for 5 min, and transfer buffer (25 mM Tris, 0.2 M glycine, 20% methanol, pH 8.5) for 10 min. The gels were pre-soaked in transfer buffer for 15 min and subsequently electro-blotted to the membrane between filter paper soaked in transfer buffer for 45 min at a current equivalent to 2.5 × total gel area (cm^2). Following blotting, we incubated the membrane in blocking buffer (3% BSA in TBS-T) for 1 h at room temperature with gentle agitation. We subsequently incubated the membrane with primary antibody (MAP2K1/2 antibody, phospho-MAP2K1/2 (Ser217/221) antibody, MAPK1/3 (p42/p44 MAPK) antibody, or phospho-MAPK1/3 (Thr202/Tyr204) antibody; Cell Signaling Technology) diluted 1:1000 in blocking buffer overnight at 4° C. We washed the membranes in wash buffer (1% BSA in TBS-T) 3 times (1× for 10 min and 2× for 5 min) and incubated them with anti-rabbit HRP-conjugated secondary antibody (Cell Signaling Technology) diluted 1:2000 in blocking buffer for 1 h with gentle agitation at room temperature. We subsequently washed membranes with gentle agitation 5 times with 1%BSA in TBS-T (1× for 10 min in, 4× for 5 min) and once in TBS-T for 5 min. […] We scanned the developed films, and determined the optical density of each lane using NIH Image (available at http://rsb.info.nih.gov/nih-image/Default.html). […]
In general terms: A western blot detects proteins with antibodies after separation by electrophoresis.

Assay [2] concerns Daoy cells. Briefly: Fibronectin-mediated cell adhesion assay (Chemicon QCM-FN). The settings on record: increasing concentrations of PDGFA, no antibody. The method, then:
Fibronectin-mediated cell adhesion and migration were assessedusing the Chemicon QCM-FN Quantitative Cell Migration Assay (Chemicon International). Briefly, Daoy cells were grown in EMEM withh 10% FBS to 80% confluency and starved in serum-free EMEM for 24 h. Cells were washed twice with PBS, harvested them with trypsin/EDTA, and resuspended them in serum-free EMEM (1×10^6 cells/ml) with 5% BSA for 1 h. We subsequently incubated cells at 37 ° C. for 30 min with either no antibody, 0.6 ug/ml of neutralizing monoclonal anti-human PDGFRA antibody (R&D Systems), 0.6 ug/mi isotype-matched control antibody (R&D Systems), and or first pretreated them with 10 μM of MAP2K1/MAP2K2 inhibitor U0126 (Cell Signaling Technology) for 1 h. […] We aliquoted eluant (50 μl)×2 for each test sample into microtiter plates, and read the optical density (OD540-570) on a ThermoMax microplate reader (Molecular Devices). Using standardized migration rates of 130 cells per mm^2 equivalent to an OD550 of 0.270 (per Chemicon product insert), we obtained the final cell counts by averaging the two OD measurements (540 nm and 570 nm) after subtraction of the BSA control measurements (background), and determined significance (P value) using a t-test. […]

For the next assay, the system named is MAP2K1. Briefly: Western blot, phospho-MAP2K1 to total ratio in Daoy cell lysates. The conditions noted are these: PDGFA 10 ng/ml. On the procedure:
as §1, with “agitation.” for “agitation. We subsequently incubated the membrane with primary antibody (MAP2K1/2 antibody, phospho-MAP2K1/2 (Ser217/221) antibody, MAPK1/3 (p42/p44 MAPK) antibody, or phospho-MAPK1/3 (Thr202/Tyr204) antibody; Cell Signaling Technology) diluted 1:1000 in blocking buffer overnight at 4° C. We washed the membranes in wash buffer (1% BSA in TBS-T) 3 times (1× for 10 min and 2× for 5 min) and incubated them with anti-rabbit HRP-conjugated secondary antibody (Cell Signaling Technology) diluted 1:2000 in blocking buffer for 1 h with gentle agitation at room temperature. We subsequently washed membranes with gentle agitation 5 times with 1%BSA in TBS-T (1× for 10 min in, 4× for 5 min) and once in TBS-T for 5 min.”

In another assay the test system is MAP2K2. Description: Western blot, phospho-MAP2K2 to total ratio in Daoy cell lysates. The settings on record: PDGFA 10 ng/ml. On the procedure:
as §1, with “agitation.” for “agitation. We subsequently incubated the membrane with primary antibody (MAP2K1/2 antibody, phospho-MAP2K1/2 (Ser217/221) antibody, MAPK1/3 (p42/p44 MAPK) antibody, or phospho-MAPK1/3 (Thr202/Tyr204) antibody; Cell Signaling Technology) diluted 1:1000 in blocking buffer overnight at 4° C. We washed the membranes in wash buffer (1% BSA in TBS-T) 3 times (1× for 10 min and 2× for 5 min) and incubated them with anti-rabbit HRP-conjugated secondary antibody (Cell Signaling Technology) diluted 1:2000 in blocking buffer for 1 h with gentle agitation at room temperature. We subsequently washed membranes with gentle agitation 5 times with 1%BSA in TBS-T (1× for 10 min in, 4× for 5 min) and once in TBS-T for 5 min.”

As for `N#CC(=C(/N)Sc1ccccc1N)/C(C#N)=C(\N)Sc1ccccc1N` [U0126], the “decreased cell migration, %” value with Daoy cells [1] (U0126 10 μM pretreatment, no PDGFA) is 50%. For the same compound, the “migration, % of normal baseline migration” value is 57% with Daoy cells [1] (U0126 treated cells, 1 ng/ml PDGFA) and 65% in the assay on Daoy cells [1] (U0126 treated cells, 10 ng/ml PDGFA). Besides, the Daoy cell migration in the assay with Daoy cells [1] (U0126 treated cells, 1 ng/ml PDGFA, baseline 275, P<0.05) is 158 cells/mm^2; in the assay on Daoy cells [1] (U0126 treated cells, 10 ng/ml PDGFA, baseline 275, P<0.05), 188 cells/mm^2; in the assay with Daoy cells [1] (U0126 treated cells, no PDGFA, untreated 275, P<0.05), 139 cells/mm^2. The “decrease in baseline phosphorylation of MAPK1/3, fold” value in the assay on MAPK1/3 (U0126 10 μM pretreatment 1 h, at start of migration assay) was found to be 9 fold. Moreover, in the assay with MAPK1/3 (U0126 pre-treatment then PDGFA (FIG. 6b)), the “effect on PDGFA-mediated MAPK1/3 phosphorylation” value is given as “blocks PDGFA-mediated MAPK1/3 phosphorylation”.
In the case of “PDGFA: PDGFRA ligand, growth factor (Chemicon) used to stimulate Daoy cells”, the “stimulation of Daoy migration across fibronectin-coated membranes, fold” value in the assay with Daoy cells [1] (1 ng/ml PDGFA in lower well, vs no PDGFA) is listed as “approximately 3 fold”. In addition, the Daoy cell migration in the assay with Daoy cells [1] (1 ng/ml PDGFA in lower well, untreated 212) came out at 640 cells/mm^2; in the assay on Daoy cells [1] (4 ng/ml PDGFA in lower well, untreated 212), 819 cells/mm^2; with Daoy cells [1] (10 ng/ml PDGFA in lower well, untreated 212), 847 cells/mm^2. For the same compound, the “increase in Daoy migration, fold” value in the assay on Daoy cells [1] (10 ng/ml PDGFA in lower well, vs no PDGFA) was 4 fold. Further, in the assay with Daoy cells [2], the “effect on adhesion of Daoy cells to fibronectin” value was “did not affect the adhesion”. For the same compound, the “increase in MAP2K1 phosphorylation, fold” value in the assay with MAP2K1 is 1.6 fold. For the same compound, the “increase in MAPK1/3 phosphorylation, fold” value with MAPK1/3 (PDGFA 10 ng/ml) is on record as 1.7 fold. Moreover, in the assay with MAP2K2, the “increase in MAP2K2 phosphorylation, fold” value worked out at 1.3 fold.
